# Reference: patent EP4725507A1, “POLYPEPTIDE CONJUGATE, PHARMACEUTICAL COMPOSITION CONTAINING POLYPEPTIDE CONJUGATE AND USE THEREOF” (Nanjing Anji Biotechnology Co., Ltd., priority 2023, dated 2025)
# What was measured:
# [1] = test system: A549 (non-small cell lung cancer cells); assay: Tumor cell proliferation inhibition (CCK8); format: cell-based; conditions: Homo sapiens, 72 h
# From the text: (§1) Human highly metastatic hepatocellular carcinoma cells HCCLM3, human highly metastatic gastric cancer cells MKN45, human gastric cancer cells BGC-823 and MGC-803, non-small cell lung cancer cells A549, human pancreatic cancer cells ASPC-1, human colon cancer cells LoVo, human ovarian cancer cells A2780, human cervical cancer cells SiHa, human malignant melanoma cells SK-mel-2 and M14, human osteosarcoma cells Saos-2, human bladder transitional cell carcinoma cells T24, human brain glioblastoma cells U87-MG, human lymphoma cells Raji, and human epidermal cancer cells A431 were selected for the experiment. Among them, HCCLM3 cells, MKN45 cells, BGC-823 cells, MGC-803 cells, A431 cells and A549 cells were provided by Nanjing Anji Biotechnology Co., Ltd., and the other cells were provided by Nanjing Ouji Pharmaceutical Technology Service Co., Ltd.
# (§2) The aforementioned tumor cells were preserved in a medium containing 10% fetal bovine serum and 1% penicillin-streptomycin, and incubated at 37°C with 5% CO2 and 95% humidity. The aforementioned tumor cells were cultured in T75 flasks with an experimental cell density of 80%. The aforementioned tumor cell lines were mycoplasma-negative.
# (§3) Tumor cells in the logarithmic growth phase were taken for the experiment. The cells were digested, counted, and prepared into a cell suspension with a concentration of 1×10^5 cells/mL, which was then inoculated into a 96-well plate (100 µL per well). The 96-well plate was incubated in a 37°C, 5% CO2 incubator for 24 hours. […] After incubating the plate in the incubator for 72 h, the cell morphology of each group was observed under a microscope. Then, 10 µL of CCK8 solution (Nanjing Enjing Biotechnology Co., Ltd.) was added to each well, and the plate was further incubated in the cell incubator for 4 h. After incubation, the absorbance was measured at 450 nm, and the tumor cell proliferation inhibition rate was calculated. The efficiency ratio was the ratio of the IC50 value of the free drug to that of the polypeptide conjugate. Table 1 Tumor cell proliferation inhibition rates of polypeptide conjugates
# [2] = test system: ASPC-1 (human pancreatic cancer cells); assay: Tumor cell proliferation inhibition (CCK8); format: cell-based; conditions: ASPC1, 72 h
# From the text: as §1, §2, §3
# [3] = test system: HCCLM3 (human highly metastatic hepatocellular carcinoma cells); assay: Tumor cell proliferation inhibition (CCK8); format: cell-based; conditions: 72 h
# From the text: as §1, §2, §3
# [4] = test system: LoVo (human colon cancer cells); assay: Tumor cell proliferation inhibition (CCK8); format: cell-based; conditions: 72 h
# From the text: as §1, §2, §3
# [5] = test system: M14 (human malignant melanoma cells); assay: Tumor cell proliferation inhibition (CCK8); format: cell-based; conditions: 72 h
# From the text: as §1, §2, §3
# [6] = test system: SK-mel-2 (human malignant melanoma cells); assay: Tumor cell proliferation inhibition (CCK8); format: cell-based; conditions: 72 h
# From the text: as §1, §2, §3
# [7] = test system: SiHa (human cervical cancer cells); assay: Tumor cell proliferation inhibition (CCK8); format: cell-based; conditions: 72 h
# From the text: as §1, §2, §3
# [8] = test system: U87-MG (human brain glioblastoma cells); assay: Tumor cell proliferation inhibition (CCK8); format: cell-based; conditions: U-87 MG, 72 h
# From the text: as §1, §2, §3
# [9] = test system: non-small cell lung cancer A549 xenograft tumors; assay: In vivo tumor-inhibitory activity of DOC-AI, A549 xenograft; parameters: species or system BALB/c nude mice; conditions: 6.20 µmol/Kg, 4 days on, 3 days off until day 21
# Procedure: Non-small cell lung cancer A549 cells in the vigorous growth stage were taken and inoculated subcutaneously into the right axilla of BALB/c nude mice (Nanjing Zhonghua Biotechnology Co., Ltd.) under sterile conditions, with a cell inoculation amount of 1×10^7. The diameter of transplanted tumors in nude mice was measured with a vernier caliper. When the tumors grew to approximately 50 mm^3, 30 tumor-bearing nude mice with good growth status and relatively uniform tumor size were selected and divided into 5 groups, with 6 mice in each group. The administration frequency was continuous administration for 4 days followed by an interval of 3 days, and this cycle was repeated until day 21. […] The tumor diameter was measured every other day, and the body weight of the nude mice was weighed simultaneously during the measurement of the tumor diameter. After 21 days of administration, the nude mice were euthanized, the tumor inhibition rate (%) was calculated, and the tumor masses were peeled off and weighed.
# [10] = test system: gastric cancer MKN45 xenograft tumors; assay: In vivo tumor-inhibitory activity of DOC-AI, MKN45 xenograft; parameters: species or system BALB/c nude mice; conditions: 6.20 µmol/Kg
# Procedure: (§4) Non-small cell lung cancer A549 cells and human gastric cancer MKN-45 cells were preserved in F12-K medium containing 10% fetal bovine serum and 1% penicillin + streptomycin, and incubated at 37°C with 5% CO2 and 95% humidity. The aforementioned cells were cultured in T175 flasks with an experimental cell density of 80%. The aforementioned cell lines were mycoplasma-negative. Both A549 cells and MKN-45 cells were provided by Nanjing Anji Biotechnology Co., Ltd.
# Gastric cancer MKN45 cells in the vigorous growth stage were taken and inoculated subcutaneously into the right axilla of BALB/c nude mice (Hangzhou Ziyuan Laboratory Animal Technology Co., Ltd.) under sterile conditions, with a cell inoculation amount of 1×10^7. The diameter of transplanted tumors in nude mice was measured with a vernier caliper. When the tumors grew to approximately 50 mm^3, 18 tumor-bearing nude mice with good growth status and relatively uniform tumor size were selected and divided into 3 groups, with 6 mice in each group. The administration frequency was once every 3 days, and this cycle was repeated until day 21. The anti-tumor effect in the nude mice was dynamically observed by measuring the tumor diameter. The tumor diameter was measured every other day, and the body weight of the nude mice was weighed simultaneously during the measurement of the tumor diameter. After 21 days of administration, the nude mice were euthanized, the tumor inhibition rate (%) was calculated, and the tumor masses were peeled off and weighed. Table 7 Results of Detection of In Vivo Tumor-Inhibitory Activity of DOC-AI
# [11] = Solubility in water (HPLC, saturated solution); format: physicochemical; conditions: thermodynamic from solid, in water (ultrapure)
# Procedure: 25, 50, 100, 200, 300, and 400 µL of the above stock solutions were precisely measured, added into 1 mL volumetric flasks, and diluted to the mark with methanol to obtain a series of standard solutions with concentrations of 25, 50, 100, 200, 300, and 400 µg/mL, respectively. The peak areas of the series of standard solutions were detected by HPLC (mobile phase: 0.065% TFA in water + 0.05% TFA; chromatographic column: YMC-Triart C18; wavelength: 220 nm) to construct a concentration-peak area standard curve, where the abscissa represents concentration and the ordinate represents peak area.
# The peak area of the sample was detected by HPLC, and its saturation in water was calculated through the concentration-peak area standard curve. Table 6 Results of detection of solubility of polypeptide conjugates in water
# [12] = test system: A2780 (human ovarian cancer cells); assay: Tumor cell proliferation inhibition (CCK8); format: cell-based; conditions: 72 h
# From the text: as §1, §2
# as §3, with “h.” for “h. After incubation, the absorbance was measured at 450 nm, and the tumor cell proliferation inhibition rate was calculated. The efficiency ratio was the ratio of the IC50 value of the free drug to that of the polypeptide conjugate. Table 1 Tumor cell proliferation inhibition rates of polypeptide conjugates”
# [13] = test system: A431 (human epidermal cancer cells); assay: Tumor cell proliferation inhibition (CCK8); format: cell-based; conditions: A-431, 72 h
# From the text: as §1, §2
# as §3, with “h.” for “h. After incubation, the absorbance was measured at 450 nm, and the tumor cell proliferation inhibition rate was calculated. The efficiency ratio was the ratio of the IC50 value of the free drug to that of the polypeptide conjugate. Table 1 Tumor cell proliferation inhibition rates of polypeptide conjugates”
# [14] = test system: BGC-823 (human gastric cancer cells); assay: Tumor cell proliferation inhibition (CCK8); format: cell-based; conditions: 72 h
# From the text: as §1, §2
# as §3, with “h.” for “h. After incubation, the absorbance was measured at 450 nm, and the tumor cell proliferation inhibition rate was calculated. The efficiency ratio was the ratio of the IC50 value of the free drug to that of the polypeptide conjugate. Table 1 Tumor cell proliferation inhibition rates of polypeptide conjugates”
# [15] = test system: MGC-803 (human gastric cancer cells); assay: Tumor cell proliferation inhibition (CCK8); format: cell-based; conditions: 72 h
# From the text: as §1, §2
# as §3, with “h.” for “h. After incubation, the absorbance was measured at 450 nm, and the tumor cell proliferation inhibition rate was calculated. The efficiency ratio was the ratio of the IC50 value of the free drug to that of the polypeptide conjugate. Table 1 Tumor cell proliferation inhibition rates of polypeptide conjugates”
# [16] = test system: MKN45 (human highly metastatic gastric cancer cells); assay: Tumor cell proliferation inhibition (CCK8); format: cell-based; conditions: MKN-45, 72 h
# From the text: as §1, §2
# as §3, with “h.” for “h. After incubation, the absorbance was measured at 450 nm, and the tumor cell proliferation inhibition rate was calculated. The efficiency ratio was the ratio of the IC50 value of the free drug to that of the polypeptide conjugate. Table 1 Tumor cell proliferation inhibition rates of polypeptide conjugates”
# [17] = test system: Raji (human lymphoma cells); assay: Tumor cell proliferation inhibition (CCK8); format: cell-based; conditions: 72 h
# From the text: as §1, §2
# as §3, with “h.” for “h. After incubation, the absorbance was measured at 450 nm, and the tumor cell proliferation inhibition rate was calculated. The efficiency ratio was the ratio of the IC50 value of the free drug to that of the polypeptide conjugate. Table 1 Tumor cell proliferation inhibition rates of polypeptide conjugates”
# [18] = test system: Saos-2 (human osteosarcoma cells); assay: Tumor cell proliferation inhibition (CCK8); format: cell-based; conditions: 72 h
# From the text: as §1, §2
# as §3, with “h.” for “h. After incubation, the absorbance was measured at 450 nm, and the tumor cell proliferation inhibition rate was calculated. The efficiency ratio was the ratio of the IC50 value of the free drug to that of the polypeptide conjugate. Table 1 Tumor cell proliferation inhibition rates of polypeptide conjugates”
# [19] = test system: T24 (human bladder transitional cell carcinoma cells); assay: Tumor cell proliferation inhibition (CCK8); format: cell-based; conditions: 72 h
# From the text: as §1, §2
# as §3, with “h.” for “h. After incubation, the absorbance was measured at 450 nm, and the tumor cell proliferation inhibition rate was calculated. The efficiency ratio was the ratio of the IC50 value of the free drug to that of the polypeptide conjugate. Table 1 Tumor cell proliferation inhibition rates of polypeptide conjugates”
# [20] = test system: human gastric cancer cell MKN45 xenograft tumors; assay: In vivo tumor-inhibitory activity of PTX-AI, MKN45 xenograft; parameters: species or system BALB/c nude mice; conditions: 5.28 µmol/Kg, once every 3 days, 21 days
# Procedure: as §4
# Human gastric cancer cells MKN-45 in the vigorous growth stage were taken and inoculated subcutaneously into the right axilla of BALB/c nude mice under sterile conditions, with a cell inoculation amount of 5×10^6. The diameter of transplanted tumors in nude mice was measured with a vernier caliper. When the tumors grew to approximately 50mm^3, […] tumor-bearing nude mice with good growth status and relatively uniform tumor size were selected, and divided into 6 groups, including 10 mice in the model group and 8 mice in each of the remaining groups. The anti-tumor effect of the test substance was dynamically observed by measuring the tumor diameter. The tumor diameter was measured every other day, and the body weight of the nude mice was weighed simultaneously during the measurement of the tumor diameter. After 21 days of administration, the nude mice were euthanized, the tumor inhibition rate (%) was calculated, and the tumor masses were peeled off and weighed. Table 3 Detection of In Vivo Tumor-Inhibitory Activity of PTX-AI
# [21] = test system: A431 (human epidermal cancer cells); assay: Tumor cell proliferation inhibition (CCK8); format: cell-based; conditions: IC50 of free drug / IC50 of polypeptide conjugate
# From the text: as §1, §2, §3
# [22] = test system: BGC-823 (human gastric cancer cells); assay: Tumor cell proliferation inhibition (CCK8); format: cell-based; conditions: IC50 of free drug / IC50 of polypeptide conjugate
# From the text: as §1, §2, §3
# [23] = test system: MGC-803 (human gastric cancer cells); assay: Tumor cell proliferation inhibition (CCK8); format: cell-based; conditions: IC50 of free drug / IC50 of polypeptide conjugate
# From the text: as §1, §2, §3
# [24] = test system: MKN45 (human highly metastatic gastric cancer cells); assay: Tumor cell proliferation inhibition (CCK8); format: cell-based; conditions: IC50 of free drug / IC50 of polypeptide conjugate
# From the text: as §1, §2, §3
# [25] = MKN45 xenograft, once every 3 days until day 21
structure (smiles),measurement,setting,value
"CC(=O)O[C@@]12CO[C@@H]1C[C@H](O)[C@@]1(C)C(=O)[C@H](O)C3=C(C)[C@@H](OC(=O)[C@H](O)[C@@H](NC(=O)OC(C)(C)C)c4ccccc4)C[C@@](O)([C@@H](OC(=O)c4ccccc4)[C@H]21)C3(C)C [DOC, docetaxel]",IC50,[1],33.5 nM
same,IC50,[2],4.35 nM
same,IC50,[3],431 nM
same,IC50,[4],992 nM
same,IC50,[5],3.68 nM
same,IC50,[6],0.214 nM
same,IC50,[7],0.235 nM
same,IC50,[8],5.4 nM
same,Tumor Inhibition Rate,[9],59.55%
same,Tumor Weight,[9],283.00 ± 179.83 mg
same,body weight changes,"[10]; MKN45 xenograft nude mice, during the administration period",showed weight loss
same,Tumor Inhibition Rate,[10]; [25],73.76±13.15%
same,Tumor Weight,[10]; [25],579 ± 391 mg
same,Final Tumor Volume,"[10]; MKN45 xenograft, once every 3 days until day 21, in mm³ (unit assumed)",256.67±391.25
same,solubility at 15 min,[11],0.0274 µg/mL
"CC(=O)O[C@H]1C(=O)[C@@]2(C)[C@H]([C@H](OC(=O)c3ccccc3)[C@]3(O)C[C@H](OC(=O)[C@H](O)[C@@H](NC(=O)c4ccccc4)c4ccccc4)C(C)=C1C3(C)C)[C@]1(OC(C)=O)CO[C@@H]1C[C@@H]2O [PTX, paclitaxel]",IC50,[3],9.4 nM
same,IC50,[12],0.19 nM
same,IC50,[13],0.17 nM
same,IC50,[14],8.11 nM
same,IC50,[15],23.6 nM
same,IC50,[16],3.21 nM
same,IC50,[17],43.9 nM
same,IC50,[18],0.77 nM
same,IC50,[19],38.6 nM
same,Tumor Inhibition Rate,[20],47.6%
same,Tumor Weight,[20],0.791 ± 0.151 g
same,Final Tumor Volume,[20]; in mm³ (unit assumed),782.0±105.9
same,solubility at 15 min,[11],0.12 µg/mL
CC(=O)O[C@H]1C(=O)[C@@]2(C)[C@H]([C@H](OC(=O)c3ccccc3)[C@]3(O)C[C@H](OC(=O)[C@H](OC(=O)CCCC(=O)N[C@@H](CCCNC(=N)N)C(=O)N[C@@H](CO)C(=O)N4CCC[C@H]4C(=O)N[C@@H](Cc4ccc(O)cc4)C(=O)N[C@@H](C)C(=O)N[C@@H](CC(N)=O)C(=O)N[C@@H](CO)C(=O)O)[C@@H](NC(=O)c4ccccc4)c4ccccc4)C(C)=C1C3(C)C)[C@]1(OC(C)=O)CO[C@@H]1C[C@@H]2O [PTX-5-AI],Efficiency Ratios,[21],2.13
same,Efficiency Ratios,[22],1.90
same,Efficiency Ratios,[23],1.27
same,Efficiency Ratios,[24],1.65
